# Publication PMC10683472, “Deep Learning-Driven Library Design for the De Novo Discovery of Bioactive Thiopeptides” (ACS Central Science, 2023)
# Where two headings read alike, the source gives them in different places. Where a SMILES comes first, the peptide text is derived from it. Where no end group is shown, it is not given here. [ ]: non-standard residue; d: D form. pyridine‑bisazole = not defined here; Nle = CCCC[C@H](N)C(=O)O; Dhb = C/C=C(\N)C(=O)O
# B1: thiopeptide IR5 (synthetic) (peptide)
# chain: SWSMLFKRRIYKSCSC
# modifications: bridge (positions not given here) via pyridine‑bisazole; reading uncertain; also: macrocyclic lactazole-like thiopeptide with pyridine-bisazole moiety, places not given here, dehydroamino acids, places not given here
# B2: thiopeptide IR1 (synthetic) (peptide)
# chain: SWS[Nle]KRQFITWHW[Dhb]SCSC
# modifications: bridge (positions not given here) via pyridine‑bisazole; not fully specified; reading uncertain; also: dehydroamino acids, macrocycle with pyridine-bisazole moiety, oxazole to thiazole mutation
# How the values were obtained:
# [1] = biological target: T1, Biotinylated IRAK4 (kinase domain, amino acids 1-460; NP_057207.2) (Homo sapiens, UniProt Q9NWZ3); assay: Surface plasmon resonance binding to IRAK4
# T1 construct: acids 1-460; NP_057207.2) was purchased from Carna Biosciences; purchased Carna Biosciences (Kobe, Japan)
# T1 sequence (Q9NWZ3 1-460): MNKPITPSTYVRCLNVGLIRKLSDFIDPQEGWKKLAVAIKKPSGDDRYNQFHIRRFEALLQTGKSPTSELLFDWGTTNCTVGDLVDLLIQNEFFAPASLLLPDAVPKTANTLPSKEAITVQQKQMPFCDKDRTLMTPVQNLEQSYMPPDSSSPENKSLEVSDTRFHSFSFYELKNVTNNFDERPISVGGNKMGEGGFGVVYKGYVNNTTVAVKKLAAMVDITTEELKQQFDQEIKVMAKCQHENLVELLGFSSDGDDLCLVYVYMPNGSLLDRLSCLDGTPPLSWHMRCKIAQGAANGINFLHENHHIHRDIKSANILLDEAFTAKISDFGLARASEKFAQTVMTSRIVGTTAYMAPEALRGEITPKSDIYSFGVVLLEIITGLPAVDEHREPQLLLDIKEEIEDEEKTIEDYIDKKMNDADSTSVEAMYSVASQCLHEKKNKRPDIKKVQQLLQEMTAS
# Description: Reagents were purchased from Nacalai Tesque, Wako Pure Chemical Industries, Sigma-Aldrich Japan, or TCI Chemicals and were used as received. Biotinylated IRAK4 (kinase domain, amino acids 1-460; NP_057207.2) was purchased from Carna Biosciences (Kobe, Japan). Recombinant human TLR10 Fc Chimera protein (extracellular domain, amino acid 20-576; Q9BXR5) was purchased from R&D system (#6619-TR-050). Anti-HA magnetic beads were from Pierce Thermo Fisher Scientific (#88836). Magnetic beads with immobilized streptavidin were from Invitrogen (Dynabeads Streptavidin C1, # 65001). Magnetic beads with immobilized streptavidin were from Invitrogen (Dynabeads Streptavidin M280, #11206D).
# Protein purification and synthesis of Streptomyces lactacystinaeus tRNAGlu were done as previously described.1–3 Protein concentration measurements were carried out on a Nanodrop 2000c spectrophotometer (Thermo Scientific) equipped with a 5 mm pathlength quartz cuvette using extinction coefficient values calculated with ExPASy ProtParam tool (https://web.expasy.org/protparam).
# Biochemical measurements (sections 2.10 – 2.14) were performed in triplicate or more. Most experiments were reproduced to an analogous outcome at least once. In the cases where the determination of biophysical parameters involved cell assay (CP50 and IC50), reported are standard errors of the fit; otherwise, error bars are standard deviations.
# RNA extracted from the gel with 300 mM NaCl were collected by ethanol precipitation followed by centrifugation (15300 g for 15 min) and dissolved in water for storage. tRNAini was aminoacylated with eFx using biotin-Phe-CME as a substrate. tRNAini (25 µM) and eFx (25 µM) were incubated with biotin-Phe-CME (5 mM) in HEPES-KOH buffer (50 mM; pH 7.5) containing 600 mM MgCl2 on ice for 2 h. The reactions were stopped with the addition of 300 mM NaOAc (pH 5.2), and precipitated with ethanol. Precipitated RNA was recovered by centrifugation (15300 g for 15 min). The pellet was washed with 70% ethanol in water (v/v) containing 100 mM NaOAc (pH 5.2) and used in translation.
# 2.10. Surface plasmon resonance
# Binding affinities between the thiopeptides and IRAK4/TLR10 were measured with a Biacore 8K instrument (GE Healthcare) at 25 °C. The assay buffer for IRAK4 binding analysis contained 50 mM Tris (pH 7.5), 150 mM NaCl, 10 mM MgCl2, 0.05% (v/v) tween-20 and 0.1% (v/v) DMSO. The […]
# Biotinylated IRAK4 was immobilized on a Biacore CAP chip (GE Healthcare) to a surface density […]
# step was allowed to proceed for 480 s. Kinetic parameters and affinities of the interaction were […]
# provided by the manufacturer. The interaction sensorgrams were measured as single -cycle […]
# Kinetic parameters and affinities of the
# Evaluation Software v.3.0 (GE Healthcare).
# [2] = test system: lipopolysaccharide-induced NF-κB signaling in THP1-XBlue cells; assay: NF-kB signaling pathway inhibition assay (SEAP reporter, LPS-stimulated); assay type: cell-based; conditions: THP1-XBlue monocytes, 6 h pre-treatment, LPS-EK 30 ng/mL, SEAP read 20 h after induction
# Method: (§1) 2.13. NF-kB signaling pathway inhibition assay
# (§2) THP-1 Cellular Assay. THP1-XBlue cells containing an NF-kB-inducible secreted embryonic alkaline phosphatase (SEAP) reporter gene (InvivoGen) were seeded to 96-well assay plates (10^5 cells/well) with RPMI 1640 culture medium containing 10% fetal calf serum. The cells were pre-treated with various concentration of analyte thiopeptide inhibitor in 0.1% DMSO and incubated at 37 °C for 6 h. LPS-EK (30 ng/mL, InvivoGen) was subsequently added to activate the NF-kB signalling for 20 h. To quantitate SEAP activity, supernatants were harvested (300 g, 5min) and mixed with Quanti-Blue (InvivoGen) detection reagent following the manufacturer’s instructions.
# (§3) Cells were assayed with cell counting kit-8 in parallel to rule out potential cytotoxicity. The plates
# THP1-XBlue cells = assay: Cell viability with Cell Counting Kit-8
# Method: as §1, §2, §3
# [3] = test system: HaloTag expressing HEK293H cells; assay: Chloroalkane penetration assay (CAPA); conditions: 18 h, chloroalkane tag-containing derivatives IR1-ct and IR5-ct
# Description: The role of IRAK4 as a kinase acting downstream of TLR and interleukin-1 receptors to phosphorylate IRAK1 and transduce immunological signals is well-established.[37] […] Therefore, we investigated the inhibitory activity of thiopeptides IR1, 5, 8, and 11. […] We first prepared chloroalkane tag-containing derivatives, IR1-ct and IR5-ct (S.I. 5.3), and utilized them in a chloroalkane penetration assay[49] to test their cellular uptake. […]
# Serum stability assay = assay type: in vitro ADME; conditions: human serum, 37 °C, LC/MS; for half-life at 10 µM: pH 7.6, read-out: serum stability τ1/2 (converted)
# IRAK4 [4] = biological target: T2, IRAK4 (Homo sapiens, UniProt Q9NWZ3); assay: biochemical
# T2 sequence (Q9NWZ3 1-460): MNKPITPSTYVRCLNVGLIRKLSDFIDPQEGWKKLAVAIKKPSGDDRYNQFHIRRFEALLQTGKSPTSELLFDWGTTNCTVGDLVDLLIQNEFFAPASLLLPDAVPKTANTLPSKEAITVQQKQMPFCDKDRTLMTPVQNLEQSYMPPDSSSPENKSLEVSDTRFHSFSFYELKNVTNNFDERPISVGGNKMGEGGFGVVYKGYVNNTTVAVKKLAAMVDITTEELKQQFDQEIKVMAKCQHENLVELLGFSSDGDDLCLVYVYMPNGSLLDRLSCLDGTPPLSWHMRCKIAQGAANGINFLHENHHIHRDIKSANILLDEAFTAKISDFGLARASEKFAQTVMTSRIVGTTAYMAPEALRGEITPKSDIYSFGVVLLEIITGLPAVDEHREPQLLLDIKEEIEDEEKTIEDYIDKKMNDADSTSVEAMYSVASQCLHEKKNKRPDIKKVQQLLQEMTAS
# IRAK4 [5] = biological target: T2, IRAK4; assay: Single-round mRNA display binding assay (qPCR), IRAK4; parameters: acids 1-460; NP_057207.2) was purchased from Carna Biosciences; purchased Carna Biosciences (Kobe, Japan); conditions: ratio of cDNA recoveries (qPCR), IRAK4 pulldown over beads only, single-round selection
# IRAK4 [6] = biological target: T2, IRAK4; assay: mRNA display affinity selection against IRAK4, NGS abundance; assay type: binding; parameters: acids 1-460; NP_057207.2) was purchased from Carna Biosciences; purchased Carna Biosciences (Kobe, Japan); conditions: IRAK4 selection, NGS abundance rank
# [7] = biological target: T3, interleukin-1 receptor-associated kinase 4 (UniProt Q9NWZ3 1-460); assay: cell-based or functional assay
# T3 sequence (looked up): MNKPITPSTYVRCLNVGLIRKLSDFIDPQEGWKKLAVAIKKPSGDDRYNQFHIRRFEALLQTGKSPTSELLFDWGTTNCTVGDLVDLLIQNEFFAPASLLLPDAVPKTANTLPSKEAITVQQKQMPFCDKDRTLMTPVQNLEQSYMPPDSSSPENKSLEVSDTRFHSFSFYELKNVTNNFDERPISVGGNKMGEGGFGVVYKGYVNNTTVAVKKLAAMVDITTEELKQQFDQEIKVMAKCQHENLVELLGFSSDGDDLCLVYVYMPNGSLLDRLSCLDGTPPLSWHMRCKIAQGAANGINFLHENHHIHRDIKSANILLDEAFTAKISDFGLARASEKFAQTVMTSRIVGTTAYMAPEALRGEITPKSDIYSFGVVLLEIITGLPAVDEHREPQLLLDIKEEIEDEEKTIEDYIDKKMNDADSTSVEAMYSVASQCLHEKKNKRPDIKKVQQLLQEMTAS
# [8] = biological target: T3, interleukin-1 receptor-associated …; assay: SPR; synthetic thiopeptides and target protein; conditions in S.I. 2.10 (not shown); conditions: both partners purified
Molecule,koff [1],kon [1],IC50 [2],cytotoxicity (Cell Counting Kit-8) (THP1-XBlue cells),CP50 (midpoint internalization concentration) [3],half-life at 10 µM (Serum stability assay),IC50 (IRAK4 [4]),display P/N ratio (IRAK4 [5]),rank in pulldown(+) (IRAK4 [6]),rank in pulldown(–) (IRAK4 [6]),"koff ([1]; SPR, IRAK4, read-out: koff)","kon ([1]; SPR, IRAK4, read-out: kon)",cytotoxicity (Cell Counting Kit-8) (THP1-XBlue cells; at the tested concentrations),serum stability τ1/2 (Serum stability assay),"IC50, lipopolysaccharide-induced NF-κB signaling (secreted alkaline phosphatase reporter) in THP1-XBlue monocytes [7]",Kd [8]
"C=C1NC(=O)C(=CC)NC(=O)[C@H](Cc2c[nH]c3ccccc23)NC(=O)[C@H](Cc2c[nH]cn2)NC(=O)[C@H](Cc2c[nH]c3ccccc23)NC(=O)[C@H]([C@@H](C)O)NC(=O)[C@H]([C@@H](C)CC)NC(=O)[C@H](Cc2ccccc2)NC(=O)[C@H](CCC(N)=O)NC(=O)[C@H](CCCNC(=N)N)NC(=O)[C@H](CCCCN)NC(=O)[C@H](CCCC)NC(=O)[C@H](CO)NC(=O)[C@H](Cc2c[nH]c3ccccc23)NC(=O)c2ccc(-c3nc(C(=O)OC)cs3)nc2-c2csc1n2 [IR1] (HELM PEPTIDE1{W.S.[Nle].K.R.Q.F.I.T.W.H.W.[CC=C(N[*:1])C(=O)[*:2]]}|CHEM1{[C=C(N[*:2])c1nc(-c2nc(-c3nc(C(=O)OC)cs3)ccc2C(=O)[*:1])cs1]}$PEPTIDE1,CHEM1,1:R1-1:R1|PEPTIDE1,CHEM1,13:R2-1:R2$$$V2.0; bridges inferred)",0.00054 s⁻¹,2930 M⁻¹ s⁻¹,7 µM,not cytotoxic,2.4 µM,3.9 ± 0.1 h,3.1 ± 0.3 µM,1829,3,1,–,–,–,–,–,–
"C=C1NC(=O)[C@H](CCCCN)NC(=O)[C@H](Cc2ccc(O)cc2)NC(=O)[C@H]([C@@H](C)CC)NC(=O)[C@H](CCCNC(=N)N)NC(=O)[C@H](CCCNC(=N)N)NC(=O)[C@H](CCCCN)NC(=O)[C@H](Cc2ccccc2)NC(=O)[C@H](CC(C)C)NC(=O)[C@H](CCSC)NC(=O)[C@H](CO)NC(=O)[C@H](Cc2c[nH]c3ccccc23)NC(=O)c2ccc(-c3nc(C(=O)OC)cs3)nc2-c2csc1n2 [IR5] (HELM PEPTIDE1{W.S.M.L.F.K.R.R.I.Y.K}|CHEM1{[C=C(N[*:2])c1nc(-c2nc(-c3nc(C(=O)OC)cs3)ccc2C(=O)[*:1])cs1]}$PEPTIDE1,CHEM1,1:R1-1:R1|PEPTIDE1,CHEM1,11:R2-1:R2$$$V2.0; bridges inferred)",–,–,7.8 µM,–,14.8 µM,1.3 ± 0.02 h,5.1 ± 0.4 µM,376,1,2,0.0037 s⁻¹,2.92e+06 M⁻¹ s⁻¹,not cytotoxic,–,–,–
"C=C1NC(=O)[C@H](Cc2c[nH]cn2)NC(=O)[C@@H]2CCCN2C(=O)[C@H](CCCNC(=N)N)NC(=O)[C@H](CCCNC(=N)N)NC(=O)[C@H](CCCNC(=N)N)NC(=O)[C@H](C)NC(=O)[C@H](Cc2c[nH]c3ccccc23)NC(=O)[C@H](Cc2ccc(O)cc2)NC(=O)[C@H](CC(C)C)NC(=O)[C@H](CO)NC(=O)[C@H](CCSC)NC(=O)[C@H](C)NC(=O)[C@H](Cc2c[nH]c3ccccc23)NC(=O)c2ccc(-c3nc(C(=O)OC)cs3)nc2-c2csc1n2 [IR11] (HELM PEPTIDE1{W.A.M.S.L.Y.W.A.R.R.R.P.H}|CHEM1{[C=C(N[*:2])c1nc(-c2nc(-c3nc(C(=O)OC)cs3)ccc2C(=O)[*:1])cs1]}$PEPTIDE1,CHEM1,1:R1-1:R1|PEPTIDE1,CHEM1,13:R2-1:R2$$$V2.0)",–,–,–,–,–,0.5 ± 0.04 h,4.1 ± 0.3 µM,1072,30,15,0.0021 s⁻¹,783 M⁻¹ s⁻¹,–,0.5 h,–,–
B1,–,–,–,–,–,–,–,–,–,–,–,–,–,–,7.8 µM,0.0013 µM
B2,–,–,–,–,–,–,–,–,–,–,–,–,–,–,7 µM,–
